The values that follow come from patent US11458212B2, “Molecular imaging of cancer cells in vivo” (H. Lee Moffitt Cancer Center and Research Institute, Inc., priority 2011, dated 2022).

SMILES strings stand for the structures. Where two headings read alike, the source gives them in different places.

In the assay the target is TLR2 (Homo sapiens, UniProt O60603). Kind of assay: In vitro TLR2 functional bioassay (NF-κB luciferase, HEK293/hTLR2 cells). The assay is classed as cell-based. The arrangement: host or cells: HEK293 stably transfected with pUNO-hTLR2, transiently transfected with the pNifty-Luc reporter.
Chain of TLR2 (O60603 21-784): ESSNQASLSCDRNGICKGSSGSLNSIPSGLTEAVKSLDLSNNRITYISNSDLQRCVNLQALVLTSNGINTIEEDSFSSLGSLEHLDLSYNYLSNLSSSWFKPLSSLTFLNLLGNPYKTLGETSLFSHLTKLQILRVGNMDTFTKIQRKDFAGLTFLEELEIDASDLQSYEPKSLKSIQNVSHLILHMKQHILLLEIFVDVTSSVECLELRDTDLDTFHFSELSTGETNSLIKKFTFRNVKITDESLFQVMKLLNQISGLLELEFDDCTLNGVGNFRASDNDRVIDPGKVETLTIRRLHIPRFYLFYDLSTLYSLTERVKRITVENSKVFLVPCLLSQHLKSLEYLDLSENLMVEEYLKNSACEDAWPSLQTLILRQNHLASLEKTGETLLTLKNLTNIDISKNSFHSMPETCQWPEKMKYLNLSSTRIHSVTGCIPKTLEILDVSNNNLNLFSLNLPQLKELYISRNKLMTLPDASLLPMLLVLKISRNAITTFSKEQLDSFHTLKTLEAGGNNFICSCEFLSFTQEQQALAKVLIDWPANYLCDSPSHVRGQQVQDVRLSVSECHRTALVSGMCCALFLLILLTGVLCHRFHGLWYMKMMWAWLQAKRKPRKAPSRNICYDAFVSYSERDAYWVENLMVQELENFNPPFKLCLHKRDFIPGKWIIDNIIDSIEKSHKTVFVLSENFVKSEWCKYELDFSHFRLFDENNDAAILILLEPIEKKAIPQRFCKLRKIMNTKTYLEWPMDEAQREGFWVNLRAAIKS
Chain of TLR2 (Q9Y2C9 32-796 partner): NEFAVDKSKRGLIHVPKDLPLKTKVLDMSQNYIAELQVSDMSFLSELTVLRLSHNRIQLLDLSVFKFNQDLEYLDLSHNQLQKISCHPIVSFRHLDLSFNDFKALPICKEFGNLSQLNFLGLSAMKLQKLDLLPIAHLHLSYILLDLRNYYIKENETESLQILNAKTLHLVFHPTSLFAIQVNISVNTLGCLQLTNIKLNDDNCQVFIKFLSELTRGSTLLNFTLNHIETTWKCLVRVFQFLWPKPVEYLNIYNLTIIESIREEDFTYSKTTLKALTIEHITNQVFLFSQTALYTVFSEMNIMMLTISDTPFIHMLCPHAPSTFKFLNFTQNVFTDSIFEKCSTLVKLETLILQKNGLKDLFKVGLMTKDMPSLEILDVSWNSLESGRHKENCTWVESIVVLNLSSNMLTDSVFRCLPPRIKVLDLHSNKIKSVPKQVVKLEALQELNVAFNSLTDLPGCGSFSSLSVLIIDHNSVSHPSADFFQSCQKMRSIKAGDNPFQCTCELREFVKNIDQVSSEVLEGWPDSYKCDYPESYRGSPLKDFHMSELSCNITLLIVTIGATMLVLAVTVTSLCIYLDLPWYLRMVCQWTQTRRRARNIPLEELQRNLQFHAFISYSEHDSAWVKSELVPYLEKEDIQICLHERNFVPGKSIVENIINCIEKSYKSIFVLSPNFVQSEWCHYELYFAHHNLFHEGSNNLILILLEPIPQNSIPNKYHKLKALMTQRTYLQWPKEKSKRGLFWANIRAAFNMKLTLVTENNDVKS
The mark [1] stands for this setting: dose-response 0.001 ng/mL to 10 μg/mL, read-out: TLR2 Agonist Activity EC50.
[2] abbreviates: log(agonist) vs. normalized response, doses 0.01 ng/mL to 1 μg/mL, read-out: EC50.

For orientation: EC50 means the midpoint of the concentration-response curve. Turning to `CCCCCCCCCCCCCCCC(=O)N[C@@H](CSCC(COC(=O)CCCCCCCCCCCCCCC)OC(=O)CCCCCCCCCCCCCCC)C(=O)N[C@@H](CO)C(=O)N[C@@H](CCCCN)C(=O)N[C@@H](CCCCN)C(=O)N[C@@H](CCCCN)C(=O)N[C@@H](CCCCN)C(=O)O` (mixture of isomers) [Pam3CSK4, N-Palmitoyl-S-[2,3-bis(palmitoyloxy)-(2RS)-propyl]-[R]-cysteinyl-[S]-seryl-[S]-lysyl-[S]-lysyl-[S]-lysyl-[S]-lysine, reference compound], the “luciferase activity relative to cells incubated with no ligand” value (24 h post ligand stimulation, n=6) is reported as 50 fold. In addition, the EC50 turned out to be 23 nM under setting [1] and 22.5 nM under setting [2].

`CCCCCCCCCCCCCCCC(=O)OCC(CSC[C@H](N)C(=O)N[C@@H](CO)C(=O)N[C@@H](CCCCN)C(=O)N[C@@H](CCCCN)C(=O)N[C@@H](CCCCN)C(=O)N[C@@H](CCCCN)C(=O)O)OC(=O)CCCCCCCCCCCCCCC` (mixture of isomers) [Pam2CSK4, S-[2,3-bis(palmitoyloxy)-(2RS)-propyl]-[R]-cysteinyl-[S]-seryl-[S]-lysyl-[S]-lysyl-[S]-lysyl-[S]-lysine, reference compound]: the EC50 worked out at 3.7 nM under setting [1] and 3.66 nM under setting [2].
